According to patent publication US20220213524A1, “KINASE SCREENING ASSAYS” (University of Newcastle upon Tyne, priority 2019, published 2022):

Legend:
Type in all cases: cell-based
INCENP TSSph = test: Immunofluorescence microscopy and high content imaging of INCENP TSSph after acute kinase inhibition in nocodazole-arrested mitotic cells; details: over 9 minutes; nocodazole-arrested mitotic HeLa cells, MG132 included
Excerpt: (§1) To confirm that Cyclin B1-Cdk1 was a bona fide kinase for INCENP S446, the inventors first conducted in vitro kinase assays. Indeed, Cyclin B1-Cdk1 efficiently phosphorylated S446 on a recombinant INCENP fragment containing residues 369-583, but not the TSS motif (S893/S894) in recombinant INCENP residues 825-918. In contrast, Aurora B was able to phosphorylate its known target, the TSS motif of INCENP, but not S446 (FIG. 4B). Furthermore, INCENP immunoprecipitated from nocodazole-arrested mitotic cells was recognized by the INCENP S446ph antibody, and this phosphorylation was sensitive to the Cdk inhibitor Roscovitine (FIG. 14). However, determining the direct substrates of Cyclin B1-Cdk1 in cells is complicated because inhibition of Cdk1 prevents mitotic entry and/or forces mitotic exit, leading to indirect effects on multiple kinase substrates. […] Aurora B relocates to the spindle midzone at the end of mitosis so, as an additional way to focus on cells still in mitosis, the inventors analyzed only cells in which Aurora B remained on chromosomes. […] Also consistent with Cyclin B1-Cdk1 being the kinase responsible, INCENP S446ph was detected on chromosomes in mitotic cells from early mitosis until metaphase when Cyclin B1-Cdk is active, but was lost at anaphase when Cyclin B is degraded (FIG. 4D). […]

INCENP S446ph [1] = test: Immunofluorescence microscopy and high content imaging of INCENP S446ph after acute kinase inhibition in nocodazole-arrested mitotic cells; details: nocodazole-arrested mitotic HeLa cells, MG132 included
Excerpt: as §1

INCENP S446ph [2] = test: INCENP immunoprecipitation from nocodazole-arrested mitotic HeLa 1C8 cells and immunoblotting with INCENP S446ph antibody; details: 100 μM, 2 h, with 20 μM MG132; nocodazole-arrested mitotic HeLa 1C8 cells; immunoblot
Experimental: HeLa 1C8 cells (Dai et al., 2005) were treated with 0.5 μg/ml nocodazole for 8 h. After collecting mitotic cells by “shake off” and replating, either 100 μM Roscovitine or DMSO (vehicle control) was added together with 20 μM MG132 in the continued presence of nocodazole. After 2 h, cell lysates were prepared in 50 mM Tris, 0.3 M NaCl, 0.5% Triton X-100, 10 mM MgCl2, 5 mM EDTA, 1 mM dithiothreitol, 1 mM PMSF, 0.1 μM okadaic acid, 10 mM NaF, 20 mM β-glycerophosphate, 0.25 U/μl benzonase nuclease, cOmplete™ Mini EDTA-free Protease Inhibitor and subjected to immunoprecipitation with rabbit anti-INCENP and Dynabeads Protein G (ThermoFisher). After washing, bound proteins were eluted by boiling in SDS-PAGE sample buffer.
SDS-PAGE was carried out using the NuPAGE Bis-Tris system (ThermoFisher). Proteins were transferred onto PVDF membranes using standard techniques. Membranes were blocked with 2.5% milk in PBS, 0.1% Tween20 for 1 h, then with primary antibodies in 2.5% milk, PBS, 0.1% Tween20 overnight at 4° C. After washing 3 times with PBS, 0.1% Tween20, they were incubated for 1 h with secondary antibodies in 2.5% milk, PBS, 0.1% Tween20, washed three times with PBS, 0.1% Tween20 and once with PBS, before development using ECL substrate (Pierce) and exposure to X-ray film. Stripping of immunoblots was carried out with Restore Western Blot Stripping Buffer (ThermoFisher).

Structure (SMILES) | effect on INCENP TSSph (Aurora B phosphorylation site) (INCENP TSSph) | reduction in intensity of INCENP S446ph (INCENP S446ph [1]; over 9 minutes, only cells with Aurora B on chromosomes) [%] | sensitivity of INCENP S446 phosphorylation to inhibitor (INCENP S446ph [2]) | effect on INCENP S446ph (INCENP S446ph [1]; over the same time period (9 minutes))
O=C1NC(=NCc2cccs2)S/C1=C\c1ccc2ncccc2c1 [RO-3306] | unaffected | 50 |  | 
CC[C@H](CO)Nc1nc(NCc2ccccc2)c2ncn(C(C)C)c2n1 [Roscovitine] |  |  | sensitive | 
COc1cc2c(Nc3ccc(NC(=O)c4ccccc4)cc3)ncnc2cc1OCCCN1CCOCC1 [ZM447439] | rapid decline |  |  | did not influence
